Reference: patent publication US20250289994A1, “METHODS FOR IMPROVING HYDROCARBON PRODUCTION FROM A SUBTERRANEAN FORMATION” (CHEVRON U.S.A. INC., priority 2024, published 2025)

Assay: Static partitioning test for DME in brine and oil
Assay type: physicochemical
Conditions: room temperature, >12 hours equilibration, 150 psi
Description: To measure partitioning of the miscible solvent in contact with oil and brine for a particular chemical concentration, salinity of aqueous phase, oil type, temperature, and pressure.
Load accumulator #1 with brine and accumulator #2 with oil. Apply vacuum to sapphire cell #1 and sapphire cell #2 on the loading side of the piston. Fill the opposite side with water or lab oil. Prepare loading loop with a known volume with liquid DME at room temperature (pressure >100 psi) to ensure a target concentration of DME when injected. Connect loading loop to sapphire cell #1 (vacuum side) and to accumulator #1. Connect the opposite side of the sapphire (water side) to BPR to keep pressure inside the cell at 150 psi. Then, displace DME from the loop with brine and inject into the sapphire cell #1. Isolate and disconnect the sapphire cell #1. Then, rock the cell until liquid DME and brine get properly mixed and homogenized. Equilibrate aqueous mix for a couple of hours. Connect the accumulator #2 with the sapphire cell #2, and the sapphire cell to the BPR. Then, inject oil into the sapphire cell #2. The volume of the injected oil is the one for the desired aqueous to oil ratio (i.e. 50/50 aqueous to oil by volume). Connect the sapphire cell #1 (DME in aqueous side) to the sapphire cell #2 (oil side) and inject DME in aqueous side to cell #2. The volume of the injected aqueous phase is the one for the desired aqueous to oil ratio. The pressure inside the sapphire cell # is controlled by BPR at 150 psi. Isolate and disconnect the sapphire cell #2. Then, rock the cell until liquid aqueous and oil get properly mixed. Let the cell equilibrate for 12 hours at room temperature (˜70° F.). Prepare a solution of 1:1 by volume of deionized water and methanol. Collect a sample of aqueous phase (DME in brine) from cell #2 and mix it with methanol solution in a volumetric proportion of 1:1. Measure DME concentration in aqueous mixture from previous step via gas chromatography (GC). Then, calculate partitioning of DME in between brine and oil phase, this is the partitioning coefficient.
KDME=DME partitioning coefficient; CDME,aq=mass fraction of DME in aqueous phase at equilibrium; and CDME,oil=mass fraction of DME in oleic phase at equilibrium.
Alternatively, to measuring DME concentration via GC and after isolating and disconnecting sapphire cell #2, both aqueous phase and oleic phase could be separated, and then individually taken to a PVT cell at 1 atm and 70° F. After DME evolves from each phase as gas, amounts of evolved DME could be measured and partitioning coefficient calculated.

DME partition coefficient (0.5% DME + Methanol, Volatile Oil, salinity 115,000 ppm): 1.13 | DME partition coefficient (0.5% DME, Volatile Oil, salinity 0 - DI water): 0.81 | DME partition coefficient (0.5% DME, Volatile Oil, salinity 103,000 ppm): 1.15 | DME partition coefficient (0.5% DME, Volatile Oil, salinity 150,000 ppm): 1.27 | DME partition coefficient (0.5% DME, Volatile Oil, salinity 300,000 ppm): 1.26 | DME partition coefficient (1% DME + Methanol, Black Oil, salinity 115,000 ppm): 1.87 | DME partition coefficient (1% DME + Methanol, Volatile Oil, salinity 115,000 ppm): 2.4
SMILES: COC [DME, dimethyl ether]
